Assay results taken from patent US9011853B2, “B7-H4 fusion proteins and methods of use thereof” (Amplimmune, Inc., priority 2009, dated 2015).

What was measured:
[1] = tested on: CD4^+ T cells, Treg cells, effector/memory CD4^+ T cells; test: T cell subsets in spleen, draining lymph nodes and CNS of R-EAE mice (FACS, immunochemical staining); type: in vivo, mouse
Text: Mice were anesthetized with nembutal and perfused with phosphate-buffered saline (PBS). Brains and spinal cords from each mouse were frozen in OCT (Miles Laboratories; Elkhart, Ind.) in liquid nitrogen. Tissue from the lower lumbar region of the spinal cord was sectioned at 6 μm on a Reichert-Jung 1800 cryotome and mounted on Superfrost Plus electrostatically charged slides. Cross-sections (10 μm thick for brains and 6 μm for spinal cords) from longitudinal sections of brain and spinal cord were performed. Tissues were stained with biotin-conjugated antibody to mouse CD4, PLP and FoxP3. Positive staining of biotinylated antibodies was visualized by a Tyramide Signal Amplification (TSA) Direct kit (NEN, Boston, Mass.) according to manufacturer's instructions and fluorescein anti-mouse IgG (Vector Laboratories). Sections were counterstained with 4,6-diamidino-2-phenylindole (DAPI; Sigma-Aldrich) and then coverslipped with Vectashieldmounting medium (Vector Laboratories). Slides were examined and images were acquired via epifluorescence using the SPOT RT camera (Diagnostic Instruments, Sterling Heights, Mich.). Sections from each group were analyzed at 40 or 100× magnification.
The effect of B7-H4-Ig treatment on the number of Treg cells in vivo was analyzed in this study. The effect of B7-H4-Ig on the number and phenotype of CD4^+ T cells infiltrating into the CNS following B7-H4-Ig treatment, the relevant site for activity in vivo, was determined. […] SJL mice were first immunized with PLP139-151 peptide. B7-H4-Ig treatment started during remission (Day 23). Mice received mouse Control IgG, 100 μg, or B7-H4-Ig at either 60 or 300 μg, 3 times per week for 2 weeks or 4 weeks. Half of the animals (5 mice from each group) were euthanized on Day 35, after 6 doses of B7-H4-Ig. The rest of the animals (5 mice from each group) were euthanized on Day 50, after 12 doses of B7-H4-Ig. Mouse spleens, draining lymph nodes, spinal cords and brains were collected, tissues were made into a single cell suspension and counted via the use of a hemocytometer, and analyzed for the presence of effector/memory CD4^+ T cells (CD4^+CD44^+) and Treg cells (CD4^+CD25^+FoxP3^+). Whole cerebellar and lumbar spinal cord tissue samples were snap frozen and processed as described above to analyze the number of CD4^+ and FoxP3^+ cells present within the CNS by histology.
Cells isolated from spleen, draining lymph node and also lumbar spinal cord were stained for CD4, CD44 and FoxP3 followed by FACS analysis to obtain the number of total CD4^+ T cells, Treg (CD4^+/Foxp3^+) and effector/memory CD4^+ T cells (CD4^+/CD44^+). The data is presented in FIGS. 43A, 43B, and 43C as the mean number of cells for each phenotype from individual mouse. […] Similar data was obtained after the full course of 12 treatments.

[2] = tested on: CD4^+CD62L^+ naïve T cells; test: In vitro induction of iTreg cells, FACS for FoxP3/CD25; type: cell-based, mouse; settings: SJL naïve T cells, 10 ng/mL TGF-β and 50 U/mL IL-2; 0, 1, 5 or 10 μg/mL (control IgG 10 μg/ml)
Protocol: CD4^+CD62L^+ naïve T cells were first labeled with CFSE (5 μM) for 10 min at room temperature. The dye was quenched by the addition of 0.5 volumes of ice-cold fetal calf serum. The cells were incubated on ice for 5 min followed by centrifugation to collect the cell pellet. The cells were washed 2 more times in HL-1 culture media. The cells were then cultured in the presence of TGF-β (10 ng/mL) and IL-2 (10, 50, 100 U/mL) for 3 days before intracellular staining with anti-FoxP3 APC. FACS analysis was conducted to detect the FoxP3^+, in vitro expanded iTreg cells.
Therefore, it was next examined if B7-H4-Ig treatment of naïve CD4^+CD62L^+ T cells in the presence of inducible Treg (iTreg) cell-promoting conditions would results in an increase in the numbers of CD4^+CD25^+FoxP3^+ iTreg cells. First the in vitro iTreg induction culture conditions were optimized to allow for experimental conditions to assess what additional effect, if any, B7-H4-Ig has on iTreg induction. CD4^+ T cells were isolated from female SJL mice. Purified mouse CD4^+CD62L^+ T cells were first labeled with CSFE and induced to iTreg cells in the presence of TGF-β (10 ng/mL) and IL-2 at concentrations of 0, 50 or 100 U/mL. FACS analysis was performed 3 days later to detect FoxP3 expression and CFSE content. A FoxP3 positive and CFSE diluted cell population was detected when using 100 U/mL of IL-2 for iTreg differentiation. […]

Human T cells = test: Quantitative RT-PCR of human T cells under Th17 differentiation cocktail; type: cell-based; settings: 1 μg/mL, vs Synagis (FIG. 55)
Protocol: Human T cells were activated by anti-CD3 and anti-CD28 bound beads in the presence of Th17 differntiation cocktail (TGF-β1 (10 ng/mL), IL-6 (50 ng/mL), IL-23 (4 ng/mL), anti-IL-4 (10 μg/mL), anti-IFN-γ (5 μg/mL) and anti-IL-2 (5 μg/mL)). Cells were incubated with two different variants of B7-H4-Ig (1 μg/mL) identified as Q or L, or a humanized monoclonal IgG antibody directed against an epitope in the A antigenic site of the F protein of the Respiratory Syncytial Virus (Synagis), as an isotype control.

Q: For “B7-H4-Ig: B7-H4 extracellular domain fused to Ig Fc; bare label is the human protein in Example 3, murine protein in Examples 1, 2, 5, 7-11”, which “amount of Treg cells in the CNS” value ([1]; FIG. 43C) is on record?
A: appeared constant

Q: And the “number of Treg (CD4+/FoxP3+) cells within the spleen and lymph node” value ([1]; R-EAE mice treated during remission (FIGS. 43A, 43B))?
A: remarkably increased

Q: And the “level of demyelination via anti-PLP staining” value ([1]; control IgG vs B7-H4-Ig treated mice)?
A: no significant difference in the level of demyelination

Q: What about the “number of FoxP3+ cells within the CNS (histology)” value ([1]; lumbar spinal cord cross sections) of the same substance?
A: increases the number of FoxP3^+ cells within the CNS

Q: And the “percentage of Treg cells among CD4+ T cells in the CNS” value ([1]; vs Control IgG injected mice (FIG. 44))?
A: significantly higher

Q: And the “effector/memory T cells (CD4+/CD44+) within the CNS” value ([1]; vs Control IgG treated mice (FIG. 43C))?
A: decreased

Q: What about the “percentage of FoxP3+CD25+ iTregs” value [2] of the same substance?
A: increased the percentage of FoxP3^+CD25^+ iTregs in a dose-dependent manner

Q: What about the “expression of mRNA involved in Th17 cell differentiation (RORc, IL-17A, IL-17F, IL-21, IL-22)” value (Human T cells) of the same substance?
A: downregulates the expression of mRNA involved in Th17 cell differentiation
